The target of the test is T1, mouse c-fms (Mus musculus, UniProt P09581).
T1 construct: Macrophage-like cell line BAC-1.2F5 which expresses c-fms as a M-CSF receptor on cell membranes; endogenous in cells; host or cells: BAC-1.2F5 mouse macrophage-like cell line
T1 sequence (P09581 20-977): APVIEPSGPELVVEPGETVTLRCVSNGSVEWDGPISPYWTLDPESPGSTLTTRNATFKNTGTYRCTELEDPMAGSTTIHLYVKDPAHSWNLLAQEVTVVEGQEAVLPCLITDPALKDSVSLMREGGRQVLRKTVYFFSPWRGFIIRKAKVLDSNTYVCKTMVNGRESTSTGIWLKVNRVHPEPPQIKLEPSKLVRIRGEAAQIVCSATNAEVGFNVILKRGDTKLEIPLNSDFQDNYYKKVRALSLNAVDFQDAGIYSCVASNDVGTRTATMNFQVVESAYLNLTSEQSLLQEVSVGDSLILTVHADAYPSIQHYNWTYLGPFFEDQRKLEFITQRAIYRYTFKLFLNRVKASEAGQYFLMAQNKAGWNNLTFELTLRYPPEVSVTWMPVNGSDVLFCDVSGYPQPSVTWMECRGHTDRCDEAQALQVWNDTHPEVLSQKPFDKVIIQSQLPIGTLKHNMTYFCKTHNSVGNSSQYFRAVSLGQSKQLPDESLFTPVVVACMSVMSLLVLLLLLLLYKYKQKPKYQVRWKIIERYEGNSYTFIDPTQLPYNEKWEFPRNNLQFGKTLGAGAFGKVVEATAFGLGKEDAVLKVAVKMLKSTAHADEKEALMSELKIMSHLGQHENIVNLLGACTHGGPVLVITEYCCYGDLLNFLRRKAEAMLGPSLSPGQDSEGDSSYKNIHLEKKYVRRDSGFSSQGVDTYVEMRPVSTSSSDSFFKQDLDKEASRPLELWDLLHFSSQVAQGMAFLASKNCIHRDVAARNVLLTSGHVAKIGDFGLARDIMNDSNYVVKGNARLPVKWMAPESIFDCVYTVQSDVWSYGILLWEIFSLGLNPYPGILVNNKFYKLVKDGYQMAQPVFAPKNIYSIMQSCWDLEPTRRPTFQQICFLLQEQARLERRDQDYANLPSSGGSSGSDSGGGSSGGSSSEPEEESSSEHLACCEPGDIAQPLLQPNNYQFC
Description: Inhibition of c-fms autophosphorylation in macrophage-like cell line BAC-1.2F5 by M-CSF stimulation (ELISA). Particulars: BAC-1.2F5 cells, human recombinant M-CSF 50 ng/ml, read-out: c-fms autophosphorylation 50% inhibitory concentration (IC50). The test is classed as cell-based. As to the method: Macrophage-like cell line BAC-1.2F5 which expresses c-fms as a M-CSF receptor on cell membranes (CLAUDIA M. et al., J. Cell. Physiol., 130, 420-427 (1987), “Isolation and Characterization of a Cloned Growth Factor Dependent Macrophage Cell Line, BAC1.2F5”) was cultured at 37° C. in a DMEM medium containing L-cell supernatant and 10% fetal calf serum (GIBCO BRL) in a 5% CO2 incubator until about 50 to 70% confluent. The harvested cells were inoculated into wells, each containing the same medium, in a collagen type I coat 96-well flat-bottom plate in an amount of 5.0×10^4 per well, and cultured at 37° C. for 12 hr. Thereafter, the medium was replaced with a DMEM medium containing a 0.1% fetal calf serum and cultured for 12 hr. Thereafter, a test compound dissolved in dimethyl sulfoxide was added to each well, and cells were incubated at 37° C. for one hr. Human recombinant M-CSF was added to a final concentration of 50 ng/ml, and cells were stimulated at 37° C. for 6 min. After the medium was removed, 50 μl of a solubilization buffer (20 mM HEPES (pH 7.4), 150 mM NaCl, 0.2% Triton X-100, 10% glycerol, 5 mM sodium orthovanadylate, 5 mM disodium ethylenediaminetetraacetate, and 2 mM Na4P2O7) was added thereto. The mixture was shaken at 4° C. for 2 hr to prepare a cell extract as an assay sample which was then used for an ELISA assay.
The plate for the ELISA assay was prepared as follows. Phosphate buffered saline (50 μl, pH 7.4) containing 5 μg/ml of anti-phospho-tyrosine antibody (PY20; Transduction Laboratories) was added to a microplate for ELISA (Maxisorp; purchased from NUNC), followed by standing at 4° C. overnight to be immobilized on the wells. Thereafter, each well was washed twice with 200 μl of a Ca- and Mg-free phosphate buffer containing 0.1% Tween-20 (hereinafter referred to as “PBS-T”), and 200 μl of a blocking solution (Dainippon Pharmaceutical Co. Ltd.: BlockAce) was added to each well, and the wells were then allowed to stand at room temperature for 2 hr for blocking.
Separately, phosphate buffered saline (50 μl, pH 7.4) containing 5 μg/ml of anti-phospho-tyrosine antibody (PY20; Transduction Laboratories) was added to a microplate for ELISA (Maxisorp; purchased from NUNC), followed by standing at 4° C. overnight to form a solid phase on the wells. After washing of the plate, 300 μl of a blocking solution was added, followed by standing at room temperature for 2 hr to perform blocking. After washing, the whole quantity of the cell extract was transferred to the wells, and the plate was then allowed to stand at 4° C. overnight. After washing, anti-c-fms antiserum (Upstate Biotechnology, Inc.) was allowed to react at room temperature for one hr, and, after washing, a peroxidase-labeled anti-rabbit Ig antibody (Amersham) was allowed to react at room temperature for one hr. After washing, a chromophoric substrate for peroxidase (Sumitomo Bakelite Co., Ltd.) was added thereto to initiate a reaction. After a suitable level of color development, a reaction termination solution was added to stop the reaction, and the absorbance at 450 nm was measured with a microplate reader. The c-fms phosphorylation activity for each well was determined by presuming the absorbance without the addition of the test compound and with the addition of M-CSF to be 100% c-fms phosphorylation activity and the absorbance without the addition of the test compound and M-CSF to be 0% c-fms phosphorylation activity. The concentration of the test compound was varied on several levels, the c-fms phosphorylation inhibitory rate was determined for each case, and the concentration of the test compound necessary for inhibiting 50% of c-fms phosphorylation (IC50) was calculated.
In general terms: An ELISA detects its analyte on a solid surface through an enzyme-linked reagent.
As for `COc1cc2nccc(Oc3ccc(NC(=O)NC(C)c4nc(C)c(C)s4)c(C(F)(F)F)c3)c2cc1OC` (centres unmarked) [Example 97, N-[4-[(6,7-Dimethoxy-4-quinolyl)oxy]-2-(trifluoromethyl)phenyl]-N′-[1-(4,5-dimethyl-1,3-thiazol-2-yl)ethyl]urea], the IC50 worked out at 120 nM.
To `COc1cc2nccc(Oc3ccc(NC(=O)N[C@H]4CCc5ccccc54)cc3)c2cc1OC` [Example 43, N-[(1S)-2,3-Dihydro-1H-1-indenyl]-N′-{4-[(6,7-dimethoxy-4-quinolyl)oxy]phenyl}urea] belongs 3.1 nM; to `CC[C@@H](NC(=O)Nc1ccc(Oc2ccnc3cc(OC)c(OC)cc23)cc1)c1ccccc1` [Example 38, N-{4-[(6,7-Dimethoxy-4-quinolyl)oxy]phenyl}-N′-[(1R)-1-phenylpropyl]urea], 5.7 nM.
Turning to `COc1cc2nccc(Oc3cc(C)c(NC(=O)NC(C)c4nc(C)c(C)s4)cc3C)c2cc1OC` (centres unmarked) [Example 98, N-{4-[(6,7-Dimethoxy-4-quinolyl)oxy]-2,5-dimethylphenyl}-N′-[1-(4,5-dimethyl-1,3-thiazol-2-yl)ethyl]urea], the IC50 amounted to 426 nM.
For `COc1cc(Oc2ccnc3cc(OC)c(OC)cc23)ccc1NC(=O)N[C@H](C)c1nccs1` [Example 76, N-{4-[(6,7-Dimethoxy-4-quinolyl)oxy]-2-methoxyphenyl}-N′-[(1R)-1-(1,3-thiazol-2-yl)ethyl]urea], the IC50 was 7.1 nM.
`COc1cc(Oc2ccnc3cc(OC)c(OC)cc23)ccc1NC(=O)N[C@@H](C)c1nccs1` [Example 75, N-{4-[(6,7-Dimethoxy-4-quinolyl)oxy]-2-methoxyphenyl}-N′-[(1S)-1-(1,3-thiazol-2-yl)ethyl]urea]: the IC50 turned out to be 2.1 nM.
As to `COc1cc2nccc(Oc3ccc(NC(=O)NC(C)c4nc(C)c(C)s4)cc3)c2cc1OC` (centres unmarked) [Example 94, N-{4-[(6,7-Dimethoxy-4-quinolyl)oxy]phenyl}-N′-[1-(4,5-dimethyl-1,3-thiazol-2-yl)ethyl]urea], the IC50 stood at 53.5 nM.
For the compound `CC[C@H](NC(=O)Nc1ccc(Oc2ccnc3cc(OC)c(OC)cc23)cc1)c1ccccc1` [Example 37, N-{4-[(6,7-Dimethoxy-4-quinolyl)oxy]phenyl}-N′-[(1S)-1-phenylpropyl]urea], the IC50 is 5 nM.
`COc1cc2nccc(Oc3ccc(NC(=O)NC(C)c4nc(C)c(C)s4)c(F)c3)c2cc1OC` (centres unmarked) [Example 95, N-{4-[(6,7-Dimethoxy-4-quinolyl)oxy]-2-fluorophenyl}-N′-[1-(4,5-dimethyl-1,3-thiazol-2-yl)ethyl]urea]: the IC50 was determined as 38.3 nM.
To `COc1cc2nccc(Oc3ccc(NC(=O)NC(C)c4nc(C)c(C)s4)c(C)c3)c2cc1OC` (centres unmarked) [Example 96, N-{4-[(6,7-Dimethoxy-4-quinolyl)oxy]-2-methylphenyl}-N′-[1-(4,5-dimethyl-1,3-thiazol-2-yl)ethyl]urea] belongs 147 nM; to `COc1cc2nccc(Oc3ccc(NC(=O)N[C@@H]4CCc5ccccc54)cc3)c2cc1OC` [Example 44, N-[(1R)-2,3-Dihydro-1H-1-indenyl]-N′-{4-[(6,7-dimethoxy-4-quinolyl)oxy]phenyl}urea], 1.8 nM.

Source of the values: US7598258B2, “Quinoline derivatives and quinazoline derivatives inhibiting autophosphorylation of macrophage colony stimulating factor receptor” (Kirin Beer Kabushiki Kaisha, priority 2002, dated 2009).
